Test results reported in ChEMBL document CHEMBL1146280, “New competitive inhibitors of cytosolic (NADH-dependent) rabbit muscle glycerophosphate dehydrogenase” (Bioorg Med Chem Lett, 2007).

Columns and labels:
Oryctolagus cuniculus = organism: Oryctolagus cuniculus; assay: Inhibition of rabbit muscle NADH-dependent cytosolic glycerophosphate dehydrogenase
[1] = Inhibition of class I FBA; parameters: species or system Homo sapiens
[2] = Inhibition of class II FBA

SMILES | Ki (Oryctolagus cuniculus) [µM] | Ki [1] [µM] | Ki [2] [µM]
NC(CC(=O)NO)P(=O)(O)O (stereo not drawn) | > 500 | 9000 | 3000
O=C(CCP(=O)(O)O)NO | 6 | > 500 | 145
NNC(=O)COP(=O)(O)O [PHOSPHORIC ACID MONOHYDRAZINOCARBONYLMETHYL ESTER] | > 500 | 370 | 0.34
O=C(COP(=O)(O)O)NO [PHOSPHOGLYCOLOHYDROXAMATE] | 10 | 1 | 0.01
N/C(COP(=O)(O)O)=N/O | 100 | > 1000 | 2.3
O=C(CC(O)P(=O)(O)O)NO (stereo not drawn) | 40 | 180 | 418
